Source: US7968534B2, “Sulfonamide derivatives, preparation thereof and use thereof as antagonists of orexin 2 receptors” (Sanofi-Aventis, priority 2006, dated 2011)
Structures can show the parent of a compound that is named as a salt. Where two headings read alike, the source gives them in different places.

Columns and labels:
human orexin 2 receptors = molecular target: T1, human orexin 2 receptors (Homo sapiens, UniProt O43614); assay: in vitro binding test: displacement of radioiodinated orexin A, membranes of CHO cells; details: read-out: IC50 OX 2
T1 construct: expressed in transfected cells; host or cells: CHO cells (membranes)
T1 sequence (O43614 1-444): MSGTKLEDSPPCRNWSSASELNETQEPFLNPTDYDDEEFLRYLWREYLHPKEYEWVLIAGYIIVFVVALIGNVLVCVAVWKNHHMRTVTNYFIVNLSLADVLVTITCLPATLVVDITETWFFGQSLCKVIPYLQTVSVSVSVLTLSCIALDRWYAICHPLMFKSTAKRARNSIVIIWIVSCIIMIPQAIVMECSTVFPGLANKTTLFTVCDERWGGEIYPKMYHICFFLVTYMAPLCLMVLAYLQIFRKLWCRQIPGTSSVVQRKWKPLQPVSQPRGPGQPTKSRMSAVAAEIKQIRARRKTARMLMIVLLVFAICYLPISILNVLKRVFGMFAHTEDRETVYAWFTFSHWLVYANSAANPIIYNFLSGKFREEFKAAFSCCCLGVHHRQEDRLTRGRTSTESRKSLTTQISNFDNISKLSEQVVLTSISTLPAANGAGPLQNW
Protocol: (§1) They were in particular tested for their effects. […] This method consists in studying the displacement of radioiodinated orexin A attached to the human orexin 2 receptors expressed in CHO cells. The test is performed on membranes in a 50 mM Hepes incubation buffer containing 1 mM MgCl2, 25 mM CaCl2, 0.025% NaN3, 1% bovine serum albumin (BSA) and 100 pM of ligand for 30 minutes at 25° C. The reaction is stopped by filtration and washing on a Whatman GF/C filter. The nonspecific binding is measured in the presence of 10^−6M human orexin B. The IC50 values (concentration inhibiting 50% of the binding of radioiodinated orexin A to its receptors) are low, less than 300 nM, in particular less than 100 nM and more particularly less than 30 nM.

human orexin 1 receptors = molecular target: T2, human orexin 1 receptors (Homo sapiens, UniProt O43613); assay: in vitro binding test, same technique, radioiodinated orexin A, membrane preparation of CHO cells; details: Table 2, read-out: IC50 OX 1
T2 construct: expressed in transfected cells; host or cells: CHO cells (membrane preparation)
T2 sequence (O43613 1-425): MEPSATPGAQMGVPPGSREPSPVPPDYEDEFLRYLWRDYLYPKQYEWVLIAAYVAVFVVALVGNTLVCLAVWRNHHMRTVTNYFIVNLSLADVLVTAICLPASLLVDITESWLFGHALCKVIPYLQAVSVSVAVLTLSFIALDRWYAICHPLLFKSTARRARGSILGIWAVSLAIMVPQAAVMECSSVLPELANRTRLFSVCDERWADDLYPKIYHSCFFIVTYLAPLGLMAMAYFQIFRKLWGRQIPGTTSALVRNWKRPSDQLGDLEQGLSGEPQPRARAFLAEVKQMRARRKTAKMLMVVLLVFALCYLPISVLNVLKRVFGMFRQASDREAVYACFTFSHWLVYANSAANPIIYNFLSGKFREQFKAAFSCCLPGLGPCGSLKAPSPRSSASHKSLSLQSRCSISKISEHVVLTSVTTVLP
Protocol: as §1
The affinity of the compounds according to the invention for the orexin 1 receptors was also studied in an in vitro binding test according to the same technique using radioiodinated orexin A as ligand in a membrane preparation of CHO cells expressing the human orexin 1 receptors. The compounds according to the invention have little or no affinity for the orexin 1 receptors.

[1] = Table 2, in vitro binding test, 100 pM radioiodinated orexin A, 30 minutes at 25° C.

Row | Compound | IC50 (human orexin 2 receptors; Table 1, assay not given) [nM] | IC50 (human orexin 1 receptors) [nM] | IC50 (human orexin 2 receptors; [1]) [nM]
1 | COc1ccc(S(=O)(=O)N(c2c(Cc3c(F)cccc3F)cccc2OC)[C@H]2CCNC2)cc1OC (atropisomer, axis not shown) [Compound 6, N-[2-(2,6-difluorobenzyl)-6-methoxyphenyl]-3,4-dimethoxy-N-[(3S)-pyrrolidin-3-yl]benzenesulfonamide hydrochloride] | 9.1 |  | 
2 | COc1ccc(S(=O)(=O)N(c2ccc(Cl)cc2Cc2c(F)cccc2F)[C@H]2CCNC2)cc1OC [Compound 1, N-[4-chloro-2-(2,6-difluorobenzyl)phenyl]-3,4-dimethoxy-N-[(3S)-pyrrolidin-3-yl]benzenesulfonamide hydrochloride] |  | 1380 | 16.4
3 | COc1ccc(S(=O)(=O)N(c2c(Cc3ccccc3Cl)cccc2OC)[C@H]2CCNC2)cc1OC [Compound 11, N-[2-(2-chlorobenzyl)-6-methoxyphenyl]-3,4-dimethoxy-N-[(3S)-pyrrolidin-3-yl]benzenesulfonamide hydrochloride] | 7.2 |  | 
4 | COc1ccc(S(=O)(=O)N(c2c(Cc3c(F)cccc3F)cccc2OC)[C@H]2CCC[C@@H]2N)cc1OC [Compound 14, N-[(1S,2S)-2-aminocyclopentyl]-N-[2-(2,6-difluorobenzyl)-6-methoxyphenyl]-3,4-dimethoxy-benzenesulfonamide hydrochloride] | 10 |  | 

More lines, now with the values ahead:

Row | IC50 (human orexin 2 receptors; Table 1, assay not given) [nM] | IC50 (human orexin 1 receptors) [nM] | IC50 (human orexin 2 receptors; [1]) [nM] | Compound
5 |  | 103 | 9 | COc1ccc(S(=O)(=O)N(c2c(Cc3c(F)cccc3F)cccc2OC)[C@H]2CCNC2)cc1OC (atropisomer, axis not shown) [Compound 7, N-[2-(2,6-difluorobenzyl)-6-methoxyphenyl]-3,4-dimethoxy-N-[(3S)-pyrrolidin-3-yl]benzenesulfonamide hydrochloride]
6 | 12 |  |  | COc1ccc(S(=O)(=O)N(c2c(Cc3c(F)cccc3F)cc(Cl)cc2OC)[C@H]2CCNC2)cc1OC [Compound 18, N-[2-(2,6-difluorobenzyl)-4-chloro-6-methoxyphenyl]-3,4-dimethoxy-N-[(3S)-pyrrolidin-3-yl]benzenesulfonamide hydrochloride]
